Measurements from patent US7417062B2, “Substituted arylamides” (ChemoCentryx, Inc., priority 2004, dated 2008).

target: T1, CCXCKR2 receptor (Homo sapiens, UniProt P25106); test: Displacement of 125I-labeled SDF-1 from the CCXCKR2 receptor (radioligand binding, determination of IC50 values); conditions: MCF-7 and/or MDA-MB-435S cells expressing CCXCKR2; 125I SDF-1; 3 hr at 4° C.; read-out: Activity (ability to displace 125I SDF-1 from CCXCKR2)
T1 construct: host or cells: MCF-7 (endogenous) and/or MDA-MB-435S transfected with hRDC1 in pcDNA3.1(+)
T1 sequence (P25106 whole entry): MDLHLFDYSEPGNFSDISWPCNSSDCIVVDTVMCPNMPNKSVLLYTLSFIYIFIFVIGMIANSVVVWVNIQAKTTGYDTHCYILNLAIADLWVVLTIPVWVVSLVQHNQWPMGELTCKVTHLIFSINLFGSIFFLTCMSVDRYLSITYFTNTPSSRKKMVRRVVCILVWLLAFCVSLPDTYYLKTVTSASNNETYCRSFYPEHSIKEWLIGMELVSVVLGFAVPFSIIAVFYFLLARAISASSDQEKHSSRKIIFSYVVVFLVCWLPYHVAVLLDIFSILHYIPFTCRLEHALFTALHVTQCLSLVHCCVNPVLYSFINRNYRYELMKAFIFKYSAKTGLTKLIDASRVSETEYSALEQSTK
In short: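 Whole-cell filtration binding on MCF-7 and/or MDA-MB-435S cells stably transfected with human CCXCKR2, with compounds at multiple concentrations competing with 125I-SDF-1. Incubation was 3 hr at 4° C in HEPES buffer (CaCl2, MgCl2, 0.2% BSA, pH 7.1). Bound radioactivity was collected on PEI-treated GF/B filters and counted by scintillation to give IC50.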

| SMILES | IC50 [nM] |
| --- | --- |
| COc1ccc(C(=O)N(C[C@@H]2CCCN2CC2CCCCC2)c2cccc(-c3ccccc3)c2)cc1OC [Example 24, N-biphenyl-3-yl-(S)—N-(1-cyclohexylmethyl-pyrrolidin-2-ylmethyl)-3,4-dimethoxy-benzamide] | < 500 |
| COc1cc(C(=O)N(Cc2nc(-c3ccccc3)cs2)C[C@@H]2CCCN2C2CCC2)cc2c1OC(C)(C)O2 [Example 50, 7-Methoxy-2,2-dimethyl-benzo[1,3]dioxole-5-carboxylic acid ((S)-1-cyclobutyl-pyrrolidin-2-ylmethyl)-(4-phenyl-thiazol-2-ylmethyl)-amide] | < 500 |
| COc1cc(C(=O)N(Cc2ccc3cccnc3n2)C[C@@H]2C[C@@H]3CCCC[C@@H]3N2)cc2c1OC(C)(C)O2 [Example 42, 7-Methoxy-2,2-dimethyl-benzo[1,3]dioxole-5-carboxylic acid [1,8]naphthyridin-2-ylmethyl-[(2S,3aS,7aS)-1-(octahydro-indol-2-yl)methyl]-amide] | < 500 |
| COCCOCCN1CCC[C@H]1CN(Cc1ccc2ccccc2n1)C(=O)c1cc(OC)c2c(c1)OC(C)(C)O2 [Example 47, 7-Methoxy-2,2-dimethyl-benzo[1,3]dioxole-5-carboxylic acid {(S)-1-[2-(2-methoxy-ethoxy)-ethyl]-pyrrolidin-2-ylmethyl}-quinolin-2-ylmethyl-amide] | < 500 |
| COc1cc(C(=O)N(Cc2cc3ccccc3o2)C[C@@H]2CCCN2C2CCC2)cc2c1OC(C)(C)O2 [Example 58, 7-Methoxy-2,2-dimethyl-benzo[1,3]dioxole-5-carboxylic acid benzofuran-2-ylmethyl-((S)-1-cyclobutyl-pyrrolidin-2-ylmethyl)-amide] | < 500 |
